Measured values published in US7678918B2, “Intermediates for imidazonaphthyridines” (3M Innovative Properties Company, priority 1997, dated 2010).

Assays:
[1] = test system: IFN; assay: Cytokine Induction in Human Cells: interferon (IFN) secreted by PBMCs, A549/encephalomyocarditis bioassay; type: cell-based; conditions: 18 to 24 hours; note: call rule not given here
Method in brief: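 Human PBMCs from healthy donors at 1.5-2×10^6 cells/mL in RPMI with 10% FBS, exposed to compounds (typically 0.1 to 100 μM, ≤1% DMSO) for 18 to 24 h at 37° C. Secreted IFN measured by A549/encephalomyocarditis virus cytopathic-effect bioassay, in alpha reference units/mL against NIH human leukocyte IFN standard.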

[2] = test system: TNF; assay: Cytokine Induction in Human Cells: tumor necrosis factor (TNF) secreted by PBMCs, ELISA; type: cell-based; conditions: 18 to 24 hours; note: call rule not given here
Method in brief: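 Human donor PBMCs at 1.5-2×10^6 cells/mL in RPMI with 10% FBS were exposed to compound, generally at 0.1 to 100 μM (≤1% DMSO final), for 18 to 24 h at 37 °C. Secreted TNF in supernatant was measured by ELISA and reported as pg/mL.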

[3] = test system: interferon α; assay: Interferon (α) Induction in Human Cells (PBM's, 48 hours, A549 bioassay); type: cell-based; set-up: key: +: indicates that the compound induced interferon α at that particular concentration; −: indicates that the compound did not induce interferon α at that particular concentration; ±: indicates that the results were equivocal at that particular concentration; conditions: 48 hours incubation
Experimental: An in vitro human blood cell system was used to assess interferon induction by compounds of the invention. Activity is based on the measurement of interferon secreted into culture media. Interferon is measured by bioassay.
Whole blood was collected by venipuncture into EDTA vacutainer tubes. Peripheral blood mononuclear cells (PBM's) were separated from whole blood by using either LeucoPREP™ Brand Cell Separation Tubes (available from Becton Dickinson) or Ficoll-Paque® solution (available from Pharmacia LKB Biotechnology Inc, Piscataway, N.J.). The PBM's were suspended at 1×10^6/mL in RPMI 1640 media (available from GIBCO, Grand Island, N.Y.) containing 25 mM HEPES (N-2-hydroxyethylpiperazine-N′-2-ethanesulfonic acid) and L-glutamine (1% penicillin-streptomycin solution added) with 10% heat inactivated (56° C. for 30 minutes) autologous serum added. 200 μL portions of PBM suspension were added to 96 well (flat bottom) MicroTest III sterile tissue culture plates.
The compounds were solubilized in ethanol, dimethyl sulfoxide or tissue culture water then diluted with tissue culture water, 0.01N sodium hydroxide or 0.01N hydrochloric acid (The choice of solvent will depend on the chemical characteristics of the compound being tested.). Ethanol or DMSO concentration should not exceed a final concentration of 1% for addition to the culture wells. Compounds were initially tested in a concentration range of from about 0.1 μg/mL to about 5 μg/mL. Compounds which show induction at a concentration of 0.5 μg/mL were then tested in a wider concentration range.
The solution of test compound was added in a volume (less than or equal to 50 μL) to the wells containing 200 μL of diluted whole blood or of PBM's in media. Solvent and/or media was added to control wells (wells with no test compound) and as needed to adjust the final volume of each well to 250 μL. The plates were covered with plastic lids, vortexed gently and then incubated for 48 hours at 37° C. with a 5% carbon dioxide atmosphere.
Following incubation, the plates were covered with parafilm and then centrifuged at 1000 rpm for 10 to 15 minutes at 4° C. in a Damon IEC Model CRU-5000 centrifuge. Media (about 200 μL) was removed from 4 to 8 wells and pooled into 2 mL sterile freezing vials. Samples were maintained at −70° C. until analysis.
Interferon was determined by bioassay using A549 human lung carcinoma cells challenged with encephalomyocarditis. The details of the bioassay method have been described by G. L. Brennan and L. H. Kronenberg in “Automated Bioassay of Interferons in Micro-test Plates”, Biotechniques, June/July 78, 1983, incorporated herein by reference. Briefly stated the method is as follows: interferon dilutions and A549 cells are incubated at 37° C. for 12 to 24 hours. The incubated cells are infected with an inoculum of encephalomyocarditis virus. The infected cells are incubated for an additional period at 37° C. before quantifying for viral cytopathic effect. The viral cytopathic effect is quantified by staining followed by spectrophotometric absorbance measurements. Results are expressed as alpha reference units/mL based on the value obtained for NIH HU IF-L standard. The interferon was identified as essentially all interferon alpha by testing in checkerboard neutralization assays against rabbit anti-human interferon (beta) and goat anti-human interferon (alpha) using A549 cell monolayers challenged with encephalomyocarditis virus.

SMILES | IFN induction ([1]; Dose Concentration 1.0 μM) | IFN induction ([1]; Dose Concentration 10.0 μM) | IFN induction ([1]; Dose Concentration 100.0 μM) | TNF induction ([2]; Dose Concentration 1.0 μM) | TNF induction ([2]; Dose Concentration 10.0 μM) | TNF induction ([2]; Dose Concentration 100.0 μM) | Interferon (α) Induction in Human Cells ([3]; Dose Concentration 0.01 μg/mL) | Interferon (α) Induction in Human Cells ([3]; Dose Concentration 0.05 μg/mL) | Interferon (α) Induction in Human Cells ([3]; Dose Concentration 0.10 μg/mL) | Interferon (α) Induction in Human Cells ([3]; Dose Concentration 0.50 μg/mL) | Interferon (α) Induction in Human Cells ([3]; Dose Concentration 1.0 μg/mL) | Interferon (α) Induction in Human Cells ([3]; Dose Concentration 5.0 μg/mL) | Interferon (α) Induction in Human Cells ([3]; Dose Concentration 10.0 μg/mL) | Interferon (α) Induction in Human Cells ([3]; Dose Concentration 25.0 μg/mL) | melting point [°C] | Interferon (α) Induction in Human Cells ([3]; Dose Concentration 50.0 μg/mL) | IFN induction ([1]; Dose Concentration 0.1 μM) | TNF induction ([2]; Dose Concentration 0.1 μM)
CCCCc1nc2c(N)nc3cnccc3c2n1CC(C)C [Example 27, 2-Butyl-1-(2-methylpropyl)-1H-imidazo[4,5-c][1,7]naphthyridin-4-amine] | + | + | + | + | + | + | − | − | + | + | + | + | + | + | 213 to 214 |  |  | 
Cc1nc2c(N)nc3cnccc3c2n1CC(C)C [Example 25, 2-Methyl-1-(2-methylpropyl)-1H-imidazo[4,5-c][1,7]naphthyridin-4-amine] | − | + | + | − | ± | − | − | − | − | − | − | + | + | + | 322 to 324 |  |  | 
CCCCc1nc2c(N)nc3c(c2n1CC(C)C)CCNC3 [Example 28, 2-Butyl-6,7,8,9-tetrahydro-1-(2-methylpropyl)-1H-imidazo[4,5-c][1,7]naphthyridin-4-amine] | + | + | + | − | + | + | − | ± | + | + | + | + | + | + | 164 to 166 |  |  | 
Cc1nc2c(N)nc3cccnc3c2n1CC(C)C [Example 36, 2-Methyl-1-(2-methylpropyl)-1H-imidazo[4,5-c][1,5]naphthyridin-4-amine] | + | + | + | − | + | − | − | + | + | + | + | + | + | + | 228 to 230 | + |  | 
CC(C)Cn1cnc2c(N)nc3c(c21)CCCN3 [Example 10, 6,7,8,9-Tetrahydro-1-(2-methylpropyl)-1H-imidazo[4,5-c][1,8]naphthyridin-4-amine] | + | + | + | − | − | + | − | − | − | − | + | + | + | + | 231 to 233 | + | + | −
Cc1nc2c(N)nc3c(c2n1CC(C)C)CCNC3 [Example 26, 6,7,8,9-Tetrahydro-2-methyl-1-(2-methylpropyl)-1H-imidazo[4,5-c][1,7]naphthyridin-4-amine] | + | − | + | + | ± | − | − | − | − | − | − | ± | + | + | 226 to 230 |  |  | 
CC(C)Cn1cnc2c(N)nc3cccnc3c21 [Example 32, 1-(2-Methylpropyl)-1H-imidazo[4,5-c][1,5]naphthyridin-4-amine] | + | + | + | − | − | − | − | − | − | − | + | + | + | + | 230 to 231.5 | + |  | 
CC(C)Cn1cnc2c(N)nc3c(c21)CCNC3 [Example 23, 6,7,8,9-Tetrahydro-1-(2-methylpropyl)-1H-imidazo[4,5-c][1,7]naphthyridin-4-amine] | + | + | − | − | ± | − |  |  |  |  | − | − | − | − | 220 to 223 |  |  | 
CCCCOCCCn1c(CCCC)nc2c(N)nc3cccnc3c21 [Example 80, 1-(3-Butoxypropyl)-2-butyl-1H-imidazo[4,5-c][1,5]naphthyridin-4-amine] | + | + | − | − | + | − |  |  |  |  |  |  |  |  | 101 to 101.5 |  | − | −
CCCCc1nc2c(N)nc3cccnc3c2n1CCNC(=O)c1c(C)noc1C [Example 103, N-[2-(4-Amino-2-butyl-1H-imidazo[4,5-c][1,5]naphthyridin-1-yl)ethyl]-3,5-dimethyl-4-isoxazolecarboxamide] | − | + | + | − | + | + |  |  |  |  |  |  |  |  | 188 to 189 |  | − | −
